Assay results as given in US5480969A, “Antagonists of LHRH” (The Administrators of the Tulane Educational Fund, priority 1992, dated 1996).
Converted amounts (≈) assume the structure as drawn. “And” between values parts separate entries of the source, which are not always exact repeats. Identical values can stand only once. Like-named read-outs stand apart in the source and are kept apart here. Starred links: 1 amine or outer side, 2 acyl side, 3 side chain; linkers in the order of their positions; H or OH if unused. Non-standard residues stand in square brackets, D forms with d. Residues, ends and D or L forms follow the SMILES beside them. *: point of attachment. dAla(cis-4-NHCOPyz-cHex) = N[C@H](C[C@H]1CC[C@@H](NC(=O)c2cnccn2)CC1)C(=O)O; X2 = O=C(N[C@H]1CC[C@@H](C[C@H](N[*:1])C(=O)[*:2])CC1)c1cnccn1; d(hArg(Et2)) = CCN=C(NCC)NCCCC[C@@H](N)C(=O)O; X1 = O=C([C@@H](Cc1cnc2ccccc2c1)N[*:1])[*:2]; Ala(2-pyrazinyl) = N[C@@H](Cc1cnccn1)C(=O)O; hArg(Et2) = CCN=C(NCC)NCCCC[C@H](N)C(=O)O; dPhe(4-Cl) = N[C@H](Cc1ccc(Cl)cc1)C(=O)O; X3 = O=C([C@@H](Cc1cnccn1)N[*:1])[*:2]; d2Nal = N[C@H](Cc1ccc2ccccc2c1)C(=O)O; Lys(iPr) = CC(C)NCCCC[C@H](N)C(=O)O; d3Pal = N[C@H](Cc1cccnc1)C(=O)O; Cit = NC(=O)NCCC[C@H](N)C(=O)O; Picolinoyl = O=C(c1ccccn1)*; Abu = CC[C@H](N)C(=O)O

Legend:
rats [1] = conditions: cited from earlier work; for dose giving AOA of 100% (AOA100): background, literature antagonists; for AOA %/μg 0.25: 0.25 μg
rat mast cells [2] = assay: In vitro histamine release in rat mast cells; format: cell-based
Experimental: (§1) AOA in rats was determined as reported [Humphries et al.]. The wheal area/10 μg of analog was calculated as described [Ljungqvist et al. 1987]. The histamine release was assayed in rat mast cells as reported [Hook et al., Karten et al. 1987]. […] The biological data are in Table III.
(§2) The AOA was determined in rats as reported [Humphries et al.]. […] The data from the determinations of AOA and ED50 are in Table IV.
(§3) The AOA was determined in rats, as reported (13).

[3] = Wheal area per 10 μg of analog; format: in vivo
Experimental: as §1

rat mast cells [4] = conditions: cited from earlier work; for Histamine release ED50: Table V
rats [5] = assay: Antiovulatory activity (AOA) in rats; format: in vivo, rat; conditions: Table IV / Example 2
Experimental: as §1, §2, §3
The very large number of bioassays which are required for a very large number of samples necessitate a minimal number of animals for the initial bioassays. In these initial bioassays, relatively small differences in potencies, expressed as percent AOA, may be "semi-quantitative," but even such small initial differences may reveal valid trends of potency for structural interpretation and new designs.
Bioassays are repeated as many times as required for quantitative data. […] The initial bioassay of Antide showing 63% at 0.125 μg and 89% at 0.25 μg was on the first sample of […]. The following three bioassays were on a resynthesized sample. However, both samples fulfilled all criteria for purity.

[6] = Table III parent analogs from literature; cited from earlier work
gonadotropin secretion = conditions: overectomized monkeys; single or multiple doses; cited from earlier work
testosterone secretion = conditions: male monkeys; single dose; cited from earlier work

## [D-Phe^2, Pro^3, DTrp^6 ] LHRH
Rats [1]
  dose giving AOA of 100% (AOA100): 750 μg/rat

## CC(=O)N[C@H](Cc1cnc2ccccc2c1)C(=O)N[C@H](Cc1ccc(Cl)cc1)C(=O)N[C@H](Cc1cccnc1)C(=O)N[C@@H](CO)C(=O)N[C@@H](C[C@H]1CC[C@@H](NC(=O)c2cnccn2)CC1)C(=O)N[C@H](CCCCNC(=O)c1ccccn1)C(=O)N[C@@H](CC(C)C)C(=O)N[C@@H](CCCCNC(C)C)C(=O)N1CCC[C@H]1C(=O)N[C@H](C)C(N)=O [Analog 11 (Table III), [N-Ac-D-3-Qal^1, D-pClPhe^2, D-3-Pal^3, c-PzACAla^5, D-PicLys^6, ILys^8, D-Ala^10] LHRH] (Ac-[X1][dPhe(4-Cl)][d3Pal]S[X2][dK](Picolinoyl)L[Lys(iPr)]P[dA]-NH2)
Rat mast cells [2]
  ED50 for hist. release: 171 ± 17 µg/mL

## CC(=O)N[C@H](Cc1ccc2ccccc2c1)C(=O)N[C@H](Cc1ccc(Cl)cc1)C(=O)N[C@H](Cc1cccnc1)C(=O)N[C@@H](CO)C(=O)N[C@@H](CCCCNC(=O)c1ccccn1)C(=O)NC1CCN(C(CC(C)C)C(=O)N[C@@H](CCCCNC(C)C)C(=O)N2CCC[C@H]2C(=O)N[C@H](C)C(N)=O)C1=O (stereo partly shown) [compound 21]
[3]; Table III / Example 1
  Wheal area: 99.5 ± 4.5 mm^2 /10 μg

## CC(=O)N[C@H](Cc1ccc2ccccc2c1)C(=O)N[C@H](Cc1ccc(Cl)cc1)C(=O)N[C@H](Cc1cccnc1)C(=O)N[C@@H](CO)C(=O)N[C@@H](CCCCNC(=O)c1ccccn1)C(=O)N[C@H](CCCCNC(=O)[C@H](N)CO)C(=O)N[C@@H](CC(C)C)C(=O)N[C@@H](CCCCNC(C)C)C(=O)N1CCC[C@H]1C(=O)N[C@H](C)C(N)=O (Ac-[d2Nal][dPhe(4-Cl)][d3Pal]SK(Picolinoyl)[dK](dS)L[Lys(iPr)]P[dA]-NH2)
Rat mast cells [2]
  ED50 for hist. release: 18 µg/mL

## CCN=C(NCC)NCCCC[C@H](NC(=O)[C@H](CC(C)C)NC(=O)[C@@H](CCCCNC(=NCC)NCC)NC(=O)[C@H](Cc1ccc(O)cc1)NC(=O)[C@H](CO)NC(=O)[C@@H](Cc1cccnc1)NC(=O)[C@@H](Cc1ccc(Cl)cc1)NC(=O)[C@@H](Cc1ccc2ccccc2c1)NC(C)=O)C(=O)N1CCC[C@H]1C(=O)N[C@H](C)C(N)=O [RS-26306, [N-Ac-D-2-Nal^1, D-pClPhe^2, D-3-Pal^3, D-hArg(Et2)^6, hArg(Et)2^8, D-Ala^10] LHRH] (Ac-[d2Nal][dPhe(4-Cl)][d3Pal]SY[d(hArg(Et2))]L[hArg(Et2)]P[dA]-NH2)
Rat mast cells [4]
  Histamine release ED50: 13 µg/mL

## N-Ac-D-3-Qal, D-pClPhe, D-3-Pal, Ser, c-PzACAla, D-PicLys, Leu, Arg, Pro, D-AlaNH2 [Argtide]
Rat mast cells [4]
  Histamine release ED50: 31 µg/mL
Rat mast cells [4]; Table VI / Example 3 text, from Janecka et al.
  ED50 histamine release: 31 µg/mL
Rats [1]; Table V comparison of leading antagonists, column 0.125
  column 0.125 (AOA, head not given): 63
Rats [1]; rats, Table VI / Example 3 text, from Janecka et al.
  AOA %/μg 0.25: 88%
Rat mast cells [2]
  ED50 histamine release: 30.8 ± 0.59 µg/mL
Rats [5]; 0.125 μg
  % AOA/μg dosage 0.125: 63%
Rats [5]; 0.25 μg
  % AOA/μg dosage 0.25: 89%

## CC(=O)N[C@H](Cc1ccc2ccccc2c1)C(=O)N[C@H](Cc1ccc(Cl)cc1)C(=O)N[C@H](Cc1cccnc1)C(=O)N[C@@H](CO)C(=O)N[C@@H](C[C@H]1CC[C@@H](NC(=O)c2cnccn2)CC1)C(=O)N[C@H](Cc1cnccn1)C(=O)N[C@@H](CC(C)C)C(=O)N[C@@H](CCCCNC(C)C)C(=O)N1CCC[C@H]1C(=O)N[C@H](C)C(N)=O (Ac-[d2Nal][dPhe(4-Cl)][d3Pal]S[X2][X3]L[Lys(iPr)]P[dA]-NH2)
Rat mast cells [2]
  ED50 for hist. release: 88 ± 6.4 µg/mL

## CC(=O)N[C@H](Cc1cnc2ccccc2c1)C(=O)N[C@H](Cc1ccc(Cl)cc1)C(=O)N[C@H](Cc1cccnc1)C(=O)N[C@@H](CO)C(=O)N[C@@H](CCCCNC(=O)c1ccccn1)C(=O)NC1CCN(C(CC(C)C)C(=O)N[C@@H](CCCCNC(C)C)C(=O)N2CCC[C@H]2C(=O)N[C@H](C)C(N)=O)C1=O (stereo partly shown) [compound 22]
[3]; Table III / Example 1
  Wheal area: 89.5 ± 5.5 mm^2 /10 μg

## CC(=O)N[C@H](Cc1ccc2ccccc2c1)C(=O)N[C@H](Cc1ccc(Cl)cc1)C(=O)N[C@H](Cc1cccnc1)C(=O)N[C@@H](CO)C(=O)N[C@@H](CCCCNC(=O)c1ccccn1)C(=O)N[C@H](CCCCNC(=O)[C@H](N)CO)C(=O)N[C@@H](CC(C)C)C(=O)N[C@@H](CCCCNC(C)C)C(=O)N1CCC[C@H]1C(=O)N[C@H](C)C(N)=O [Analog 7 (Table III), [N-Ac-D-Nal^1,D-pClPhe^2,D-3-Pal^3,PicLys^5,D-(DSer)Lys.sup .6,ILys^8,D-Ala^10]-LHRH] (Ac-[d2Nal][dPhe(4-Cl)][d3Pal]SK(Picolinoyl)[dK](dS)L[Lys(iPr)]P[dA]-NH2)
[3]; Table III / Example 1, listed as 7
  Wheal area: 103.9 ± 5.2 mm^2 /10 μg and 103.9 mm^2 /10 μg

## CC(=O)N[C@H](Cc1ccc2ccccc2c1)C(=O)N[C@H](Cc1ccc(Cl)cc1)C(=O)N[C@H](Cc1cccnc1)C(=O)N[C@@H](CO)C(=O)N[C@@H](Cc1cnccn1)C(=O)N[C@H](C[C@H]1CC[C@@H](NC(=O)c2cnccn2)CC1)C(=O)N[C@@H](CC(C)C)C(=O)N[C@@H](CCCCNC(C)C)C(=O)N1CCC[C@H]1C(=O)N[C@H](C)C(N)=O [compound 18] (Ac-[d2Nal][dPhe(4-Cl)][d3Pal]S[Ala(2-pyrazinyl)][dAla(cis-4-NHCOPyz-cHex)]L[Lys(iPr)]P[dA]-NH2)
Rat mast cells [2]; concentration releasing 50% of total releasable histamine, Table III / Example 1
  ED50 for hist. release: 28 ± 4.7 µg/mL
[3]; Table III / Example 1
  Wheal area: 101.6 ± 2.2 mm^2 /10 μg

## [N-Ac-D-2-Nal^1 ; D-pClPhe^2, D-Trp^3, D-Arg^6, D-Ala^10 ] LHRH
Rats [1]
  dose giving AOA of 100% (AOA100): ca. 0.5 μg/rat

## [N-Ac-D-2-Nal^1, D-pClPhe^2, D-3-Pal^3, D-Arg^6, Trp^7, D-Ala^10 ] LHRH
Rats [1]
  dose giving AOA of 100% (AOA100): ca. 0.5 μg/rat

## [N-Ac-D-2-Nal^1, DpClPhe^2, D-Trp^3, D-Cit^6, D-Ala^10 ] LHRH
Rats [1]
  dose giving AOA of 100% (AOA100): 3 μg/rat

## CC[C@H](NC(=O)[C@@H](CCCCNC(=O)c1ccccn1)NC(=O)[C@H](CCCCNC(=O)c1ccccn1)NC(=O)[C@H](CO)NC(=O)[C@@H](Cc1cccnc1)NC(=O)[C@@H](Cc1ccc(Cl)cc1)NC(=O)[C@@H](Cc1cnc2ccccc2c1)NC(C)=O)C(=O)N[C@@H](CCCCNC(C)C)C(=O)N1CCC[C@H]1C(=O)N[C@H](C)C(N)=O [compound 20] (Ac-[X1][dPhe(4-Cl)][d3Pal]SK(Picolinoyl)[dK](Picolinoyl)[Abu][Lys(iPr)]P[dA]-NH2)
[3]; Table III / Example 1
  Wheal area: 103.9 ± 3.7 mm^2 /10 μg

## CC(=O)N[C@H](Cc1cnc2ccccc2c1)C(=O)N[C@H](Cc1ccc(Cl)cc1)C(=O)N[C@H](Cc1cccnc1)C(=O)N[C@@H](CO)C(=O)N[C@@H](CCCNC(N)=O)C(=O)N[C@H](CCCCNC(=O)c1ccccn1)C(=O)N[C@@H](CC(C)C)C(=O)N[C@@H](CCCNC(=N)N)C(=O)N1CCC[C@H]1C(=O)N[C@H](C)C(N)=O [Analog 6 (Table VI), [Cit^5]-Argtide] (Ac-[X1][dPhe(4-Cl)][d3Pal]S[Cit][dK](Picolinoyl)LRP[dA]-NH2)
Rat mast cells [2]
  ED50 histamine release: 94 µg/mL (≈ 62.6 µM)

## [N-Ac-D-2-Nal^1, D-pClPhe^2, D-3-Pal^3, NicLys^5, D-NicLys^6, Ilys^8, D-Ala^10 ] LHRH [Antide]
Rat mast cells [4]; Table III parent analogs from literature
  ED50 for hist. release: 300 µg/mL
Rat mast cells [4]
  Histamine release ED50: > 300 µg/mL
Rat mast cells [4]; background
  ED50 for histamine release: 300 µg/mL
  histamine release (in words): negligible
Rats [1]; Table V, column 1.0
  column 1.0 (AOA, head not given): 100
Rats [1]
  dose giving AOA of 100% (AOA100): 1 μg/rat
Rats [1]; rats, Table III parent analogs from literature
  AOA %/μg 0.25: inactive
Rats [1]; rats, 0.5 μg, Table III parent analogs from literature
  AOA %/μg 0.5: 36%
[6]
  Wheal area: 132.7 mm^2 /10 μg
Gonadotropin secretion
  inhibition of gonadotropin secretion: Prolonged duration of inhibition
Testosterone secretion
  suppression of testosterone secretion: long-term suppression

## [N-Ac-D-2-Nal^1, D-pClPhe^2, D-3-Pal^3, Arg^5, D-Glu(AA)^6, D-Ala^10 ] LHRH [Nal-Glu]
Rats [1]; Table V, column 1.5
  column 1.5 (AOA, head not given): 100
